These results are taken from patent US8759318B2, “Phosphoramidate derivatives of guanosine nucleoside compounds for treatment of viral infections” (Inhibitex, Inc., priority 2009, dated 2014).

Read-outs that look alike come from different tables or passages of the source.

A short description of series [1]: Compound cytotoxicity in cytoprotection assay (MTS), MRC-5. Particulars: human, MRC-5 cells.
The test system of a further series is Poliovirus strain Chat. Briefly: microbe, parasite or virus in culture. In kind it is cell-based, Poliovirus I. Conditions: Enterovirus C, Vero.
The nature of series [2]: Mouse PK: 2'-C-methylguanosine triphosphate levels in liver. Particulars: 2'-C-methylguanosine triphosphate in mouse liver, 50 mg/kg PO.
A further series deals with Influenza B strain Lee. Briefly: Cytoprotection assay, Influenza B. In kind it is cell-based. Conditions: Influenza B virus, MDCK.
Series [3] can be described thus: Protide stability in normal plasma, rat. In kind it is in vitro ADME. Conditions: 37° C. The procedure:
(§1) Selected nucleoside 5′-phosphoramidates were examined for stability in human, cynomolgous monkey, rat and mouse plasma at 37° C. at both 30 min and 90 min time points.
(§2) Protide Stability in Normal Plasma: Plasma samples were prepared for analysis as follows. 50 μl of each test sample were distributed a 96-well V-bottom plate. 200 μl of acetonitrile containing 10 ng/ml of an internal standard was added to each plasma sample. The precipitated samples were centrifuged at 2500 rpm, 4° C. for 20 minutes in a Sorvall RT6000S centrifuge (Thermo Scientific, Waltham Mass.) and 100 μl of supernatant from each sample was transferred into a 96 deep well plate followed by the addition of 100 μl H2O to each sample. Samples were covered, mixed well by vortexing and maintained at 2-8° C. before and during analysis. 15 μl of each test sample was analyzed for protide concentrations by liquid chromatography coupled to tandem mass spectrometry (LC-MS/MS). Liquid chromatography was performed with an Agilent 1100 Series HPLC system equipped with a Synergi 4 μm Polar-RP, 30×2.0 mm column (Phenomenex, Torrance, Calif.). The HPLC system was coupled to an API 4000 triple quadrupole mass spectrometer (Applied Biosystems, Framingham, Mass.). Mass spectrometry was performed in positive ion mode and data was analyzed using Analyst® v1.4.2 software (Applied Biosystems, Framingham, Mass.). Data was presented as the percentage of compound recovered as compared to the 0 time point control.

Another series has as its system HSV-1 strain HF. Kind of series: Cytoprotection assay, HSV-1. The class given is cell-based. Particulars: Human alphaherpesvirus 1, Vero.
Another series has as its system HIV-1 Strain IIIB. Kind of series: Cytoprotection assay for HIV. In kind it is cell-based. Conditions: Human immunodeficiency virus 1; HIV-1 IIIB, MT-4. The protocol:
Activity against other viruses. A representative compound, Example 20, Compound F, was tested against a panel of other RNA and DNA viruses. Compound F was synthesized as described in the Experimental section. Experimental conditions for growing the cells and viruses are listed below. Unless otherwise indicated, cells and viruses were obtained from the American Type Culture Collection (ATCC, Rockville, Md.).
(§3) MT-4 cells ((Catalog #120) Human T-cell Leukemia) were obtained from the NIH AIDS Reference Reagent Program and were used in cytoprotection assays with HIV-1 Strain IIIB (Southern Research). They were grown in RPMI-1640 medium supplemented with 10% FBS.
Cytoprotection Assay for HIV:_MT-4 cells were sub-cultured one day prior to testing. Cells were plated in 96 well cell culture plates at a seeding density of 6×10^5 cells/ml (3×10^4 cells/well). […] Cytoprotection and compound cytotoxicity were assessed by XTT assay (Cat#11-465-015-001, Roche Diagnostics). The plates were read spectrophotometrically at 450/650 nm with a Molecular Devices SpectraMax M2 plate reader. The percent reduction in viral CPE was determined and reported as IC50, CC50 and a calculated TI. Samples were evaluated for antiviral efficacy and cytotoxicity with triplicate measurements using 9 concentrations at 2-fold dilutions. […]

The nature of series [4]: Protide stability in normal plasma, cynomolgous monkey. The class given is in vitro ADME. Conditions: 37° C. The procedure: as §1, §2
Another series is described as follows: in vitro. Conditions: dog.
Series [5] in a line: Compound cytotoxicity in HIV cytoprotection assay (XTT). In kind it is cell-based. Particulars: human, MT-4 cells; MT-4, HIV-1 assay. The protocol: as §3
Cytoprotection Assay for HIV:_MT-4 cells were sub-cultured one day prior to testing. Cells were plated in 96 well cell culture plates at a seeding density of 6×10^5 cells/ml (3×10^4 cells/well). […] Virus and cells were mixed in the presence of serial dilutions of test compound and incubated for 5 days at 37° C., 5% CO2. Each assay plate contained cell control wells (cells only), virus control wells (cells plus virus), compound toxicity control wells (cells plus compound only) as well as experimental wells (compound plus cells plus virus). Cytoprotection and compound cytotoxicity were assessed by XTT assay (Cat#11-465-015-001, Roche Diagnostics). The plates were read spectrophotometrically at 450/650 nm with a Molecular Devices SpectraMax M2 plate reader. The percent reduction in viral CPE was determined and reported as IC50, CC50 and a calculated TI. Samples were evaluated for antiviral efficacy and cytotoxicity with triplicate measurements using 9 concentrations at 2-fold dilutions. Each assay included Raltegravir (MK0518) as an antiviral positive control compound.
Background: Formazan colour is commonly taken as a measure of viable cells.

For another series, the system named is MDCK cells. Conditions: Influenza B assay.
The subject of series [6] is West Nile virus strain NY-99. Briefly: Cytoprotection assay, West Nile virus. In kind it is cell-based. Particulars: West Nile Virus NY-99, Vero.
In series [7] the test system is Coxsackie virus strain B4. Briefly: Cytoprotection assay, Coxsackie virus. Particulars: Enterovirus B, B4, Vero. In kind it is cell-based.
Series [8] concerns Bovine Viral Diarrhea Virus (BVDV) strain NADL. Kind of series: Cytoprotection assay, BVDV. In kind it is cell-based. Conditions: Bovine viral diarrhea virus isolates and strains, MDBK.
A further series deals with RSV strain Long. Kind of series: Cytoprotection assay, RSV. The class given is cell-based. Conditions: human respiratory syncytial virus, Vero.

In [1], `COc1nc(N)nc2c1ncn2C1O[C@H](COP(=O)(N[C@@H](C)C(=O)OCC(C)(C)C)Oc2cccc3ccccc23)[C@@H](O)[C@@]1(C)O` (stereo partly drawn) [Example 20] displayed a CC50 at 7 days of 3.08 µM. The EC50 (usually the concentration needed to bring the measured effect to its halfway point) in the series on Poliovirus strain Chat was 4.71 µM; with Influenza B strain Lee, more than 10 µM; in the series on HSV-1 strain HF, more than 10 µM; in the series with HIV-1 Strain IIIB, more than 10 µM; in series [6] it was 1.69 µM; in [7] it was more than 10 µM. The EC50 was 0.748 µM in series [8] and more than 10 µM with RSV strain Long. Further, the AUC0-6 in series [2] turned out to be 31940 ng·h/g. In [2], this compound returned an AUC0-24 of 59353 ng·h/g. Also, the “% Compound Remaining Compared to %100 Acetonitrile Control” value worked out at 0% in [3] (30 min), 0% in series [3] (1.5 h), 97.0% in [4] (30 min) and 94.0% in [4] (1.5 h). In addition, the CC50 in “in vitro” was more than 10 µM; in the series with MDCK cells it was more than 10 µM; in the series with Vero cells (African green monkey), more than 10 µM; in the series on Vero cells (Vero, HSV-1 assay), more than 10 µM; in the series with Vero cells (Vero, RSV assay), more than 10 µM. In addition, in series [5], the CC50 at 5 days turned out to be 11 µM.
